Experimental data taken from patent US20220048915A1 (SHANGHAI PHARMACEUTICALS HOLDING CO., LTD., priority 2018, published 2022).
“And” between values parts separate entries of the source, which are not always exact repeats. Equal values may be shown once. Values belong to the compound of their own block, whether it stands above or below them.

Legend:
[1] = test system: BV-2 cells; test: Inhibition of inflammation in LPS-stimulated BV-2 cells (ELISA of inflammatory factors); type: cell-based; settings: Mus musculus, 100 ng/mL LPS 4 hours
Description: Normal cultured 8th passage BV-2 cells were taken, and inoculated separately in 96-well plates at a certain cell density. The cell culture plates were cultured at 37° C. and 5% CO2 for 24 hours.
After inoculating the plate for 24 hours, the cell culture medium was removed, and then 100 μL of a 4-fold gradient dilution compound starting from 10,000 nM prepared in DMEM+10% FBS, where High control and Low control contained 0.1% DMSO without compound. With 100 μL per well, the cell culture plate was cultured at 37° C. with 5% CO2 for one hour.
The compound-containing cultures were removed. 100 ng/mL of LPS was prepared with DMEM+10% FBS culture medium, and then the compound was diluted in a 4-fold gradient from 10,000 nM with LPS-containing culture medium. In low control, the compound was replaced with 0.1% DMSO. In High control, 0.1% DMSO was prepared with culture medium without LPS. 100 μL per well, and the cell culture plates were cultured at 37° C. with 5% CO2 for 4 hours.
After 4 hours of LPS stimulation, 110 μL of the culture solution was aspirated, and centrifuged at 2000 rpm for 2 minutes. A further 90 μl of supernatant was aspirated and immediately put into −20° C. for freezing.
ELISA kits were used to detect the expression of inflammatory factors such as IL-10, TNFα, etc. The OD450 signal values were measured by microplate reader. The in vitro inhibitory activity of the compounds was calculated according to the following formula: Inhibition rate: Inhibition rate (%)=(signal value of control−signal value of administration)/(high signal value of control−low signal value of control)×100%. And according to the inhibition rate of each concentration, Graphpad Prism 5.0 was used to curve fit the […] signal values at each concentration and calculate the corresponding IC50, which is shown in Table 1.

[2] = Pharmacokinetic properties in rats; type: in vivo, SD rats; settings: rat
Description: Ten male SD rats, weighing 180-220 g (provided by Shanghai Xipuerbikai Laboratory Animal Co., Ltd, Certificate No.: 20130016008116). The rats were fasted for feed for 12-16 hours before the experiment but water was allowed.
Blood samples were collected from the fundus vein of rats before and at 2, 5, 15, 30, 60, 90, 120, 240, 360, 480, 600 and 1440 minutes after administration, respectively.
Blood samples were collected from the fundus vein of rats before and at 5, 15, 30, 60, 90, 120, 240, 360, 480, 600, 1440 minutes after administration respectively.
(§1) Blood samples were centrifuged at 8000 rpm for 5 minutes, and supernatant plasma was taken. To 50 μL of plasma samples was added 300 μL of acetonitrile containing internal standard (propranolol, 25 ng/mL) to precipitate the protein. After vortexing for 10 minutes and centrifuging at 6000 g and 4° C. for 10 minutes, the supernatant was taken and placed in a 96-well plate for determination of drug concentration in plasma by UPLC/MS-MS.

[3] = Pharmacokinetic properties in mice; type: in vivo, ICR mice
Description: Forty-eight male ICR mice, weighing 18-22 g (provided by Shanghai Xipuerbikai Laboratory Animal Co., Ltd, Certificate No.: 20130016008116). The mice were […] for 12-16 hours before the experiment but water was allowed.
Blood samples were collected from the fundus vein of mice before and at 2, 5, 15, 30, 60, 90, 120, 240, 480, 600, and 1440 minutes of the administration, respectively.
Blood samples were collected from the fundus vein of mice before and at 5, 15, 30, 60, 90, 120, 240, 480 and 1440 minutes of administration, respectively.
2-3 time points were taken for each mouse. The mice were sacrificed at 5, 15, 30, 60 and 1440 minutes after the administration (3 mice per time point), and the brains were taken, rinsed with saline, dried on filter paper and weighed.
as §1

[4] = test system: TNF-α; test: Lipopolysaccharide (LPS)-induced inflammation model in mice, TNF-α in serum by ELISA; type: in vivo, C57BL/6J mice
Description: Male SPF-grade C57BL/6J mice, 6-8 weeks old, provided by Shanghai Ling Chang Biotechnology Co., Ltd. Animals were housed in clean-grade plastic cages (light and dark cycle 12/12 hours, temperature 22±2° C., humidity 50±10%, pellet feed, free drinking water).
1. Mice were weighed and administered according to an administration volume of 10 mL/kg, and oral administration by gavage was given for the first time. Each mouse was administrated at an interval of 3 minutes.
2. One hour after the first administration, LPS 5 mpk was administered intraperitoneally at an administration volume of 10 mL/kg.
3. 4 hours after the first administration, a second oral administration by gavage was given according to the administration volume of 10 mL/kg.
4. 6 hours after LPS intraperitoneal injection, mice were sacrificed, serum and cerebral cortex and hippocampus were sampled. After weighing the wet weight and they were put into liquid nitrogen for quick-freezing and storage.

[5] = molecular target: p38 kinase; settings: CN108349964A, Table 7 on page 74; read-out: IC50 grade for the inhibitory activity of p38 kinase; cited from earlier work
[6] = male, ICR, mouse, plasma, po 10 mg/kg

IC50 ([1]; read-out: BV-2 Rf IC50): 4.26 nM
clearance ([2]; male, SD, plasma, iv 3 mg/kg): 25 mL/min/kg
Vd ([2]; male, SD, plasma, iv 3 mg/kg, read-out: Vss (iv)): 4.5 L/kg
Cmax ([2]; male, SD, plasma, po 6 mg/kg): 476 ng/mL
MRT ([2]; male, SD, plasma, po 6 mg/kg): 4.3 h
Tmax ([2]; male, SD, plasma, po 6 mg/kg): 0.8 h
Thalf (iv) ([2]; iv 3 mg/kg): 5.2 h
BA ([2]; po 6 mg/kg vs iv 3 mg/kg): 41.2%
AUClast (po) ([2]; po 6 mg/kg, 5-1440 minutes): 1644.5 (h)*(ng/mL)
Thalf (iv) ([3]; iv 3 mg/kg): 3.9 h
clearance ([3]; male, ICR, mouse, plasma, iv 3 mg/kg): 18.3 mL/min/kg
Vd ([3]; male, ICR, mouse, plasma, iv 3 mg/kg, read-out: Vss (iv)): 2.3 L/kg
Cmax [3, 6]: 750 ng/mL
MRT [3, 6]: 3.2 h
Tmax [3, 6]: 0.8 h
BA ([3]; po 10 mg/kg vs iv 3 mg/kg): 20.2%
AUClast (po) ([3]; po 10 mg/kg, 5-1440 minutes): 1844 (h)*(ng/mL)
Structure (SMILES): O=c1ncn2nc(Sc3ccc(F)cc3F)ccc2c1-c1c(Cl)cccc1Cl [VX-745, reference compound]
Emax ([1]; read-out: BV-2 Max Inh. (%)): 99.7%
levels of TNF-α compared with the mouse inflammation model group (G2) ([4]; 8 mpk, P<0.01): significantly reduced
TNF-α conc. ([4]; serum, individual animals, 8 mg/kg po bid interval 4 h, 6 hours after LPS 5 mpk ip): 142.0 pg/mL and 151.7 pg/mL and 105.5 pg/mL and 155.5 pg/mL and 55.4 pg/mL and 105.7 pg/mL and 54.3 pg/mL and 71.2 pg/mL and 24.0 pg/mL and 155.2 pg/mL

Structure (SMILES): O=c1ncn2nc(Sc3ccc(F)cc3)ccc2c1-c1c(Cl)cccc1Cl [compound 12]
IC50 [5]: 100 to 1000 nM
